Tests used:
[1] = Solubility of 3-hydroxy-3-methylbutyrate salts and complexes; assay type: physicochemical
Text: The solubility of various 3-hydroxy-3-methylbutyrate salts and the complexes of Examples was each determined.

[2] = Stability (moisture content) at 23° C. and 92.5% humidity; assay type: physicochemical; conditions: temperature 23° C., humidity 92.5%
Method: The stability of various 3-hydroxy-3-methylbutyrate salts and the complexes of the present disclosure was each measured at 23° C. and 92.5% humidity, and the results are shown in Table 7.

| Compound | Solubility [1] [g/100] | moisture content ([2]; 30 min) [%] | moisture content ([2]; 1 h) [%] | moisture content ([2]; 2 h) [%] | moisture content ([2]; 4 h) [%] | moisture content ([2]; 6 h) [%] | moisture content ([2]; 7 h) [%] | moisture content ([2]; 11 h) [%] | moisture content ([2]; 22 h) [%] |
| --- | --- | --- | --- | --- | --- | --- | --- | --- | --- |
| CC(C)(O)CC(=O)O [HMB-Na complex, 3-hydroxy-3-methylbutyric acid·sodium 3-hydroxy-3-methylbutyrate complex] | 135 | 0.22 | 0.46 | 0.75 | 1.39 | 1.62 | 1.81 | 2.19 | 3.83 |
| CC(C)(O)CC(=O)O [HMB-K complex, 3-hydroxy-3-methylbutyric acid·potassium 3-hydroxy-3-methylbutyrate complex] | 225 | 0.29 | 0.59 | 0.97 | 1.80 | 2.11 | 2.35 | 2.85 | 4.98 |
| CC(C)(O)CC(=O)[O-].[K+] [potassium 3-hydroxy-3-methylbutyrate, reference compound] | 101.1 | 0.42 | 0.85 | 1.39 | 2.57 | 3.02 | 3.35 | 4.07 | 7.11 |
| CC(C)(O)CC(=O)O [HMB-Ca complex, 3-hydroxy-3-methylbutyric acid·calcium 3-hydroxy-3-methylbutyrate complex] | 32 | 0.14 | 0.29 | 0.47 | 0.87 | 1.02 | 1.13 | 1.37 | 2.40 |
| magnesium 3-hydroxy-3-methylbutyrate [reference compound] | 6 | 0.11 | 0.23 | 0.38 | 0.70 | 0.81 | 0.91 | 1.10 | 1.92 |
| calcium 3-hydroxy-3-methylbutyrate [reference compound] |  | 0.19 | 0.38 | 0.63 | 1.16 | 1.36 | 1.51 | 1.83 | 3.20 |
| CC(C)(O)CC(=O)[O-].[Na+] [sodium 3-hydroxy-3-methylbutyrate, reference compound] | 72.9 | 0.32 | 0.65 | 1.07 | 1.98 | 2.32 | 2.58 | 3.13 | 5.47 |
